Results on 22 molecules are retold here after patent publication US9562053B2, “Benzo-fused heterocyclic derivatives useful as agonists of GPR120” (Janssen Pharmaceutica NV, priority 2013, dated 2017).

For the experiment, the target named is T1, Human GPR120 short form (Homo sapiens, UniProt Q5NUL3).
T1 construct: expressed in transfected cells
T1 sequence (Q5NUL3 1-361): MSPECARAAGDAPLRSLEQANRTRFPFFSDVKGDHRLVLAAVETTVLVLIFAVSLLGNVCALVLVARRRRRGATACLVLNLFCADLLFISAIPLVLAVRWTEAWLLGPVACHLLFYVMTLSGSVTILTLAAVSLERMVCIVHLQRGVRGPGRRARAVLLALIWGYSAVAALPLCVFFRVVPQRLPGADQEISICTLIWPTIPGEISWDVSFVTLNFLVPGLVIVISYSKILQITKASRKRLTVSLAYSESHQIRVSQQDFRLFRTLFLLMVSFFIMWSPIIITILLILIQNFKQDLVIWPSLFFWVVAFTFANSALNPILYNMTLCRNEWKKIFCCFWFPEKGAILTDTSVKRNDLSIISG
Briefly: Human GPR120 in Calcium Flux Assay, Procedure Calcium A (2500 cells/well). It is filed as cell-based. The source says: This in vitro assay serves to assess test compound agonist activity against the short splice variant (SVS with Accession number NM_001195755.1 confirmed by sequencing data) of the GPR120 receptor. The Human Short splice variant #2 (NM_001195755.1) is missing an in-frame coding exon compared to variant 1 (the Human Long splice variant NM_181745.3), resulting in a shorter isoform (GPR120-S) lacking a 16 aa protein segment compared to isoform GPR120-L. The assay platform utilizes HEK-293 cells stably transfected to express the Human GPR120 short form. These cells are first loaded with the Ca^+2 sensitive dye, Fluo-4 NW. Upon stimulation, intracellular released Ca^+2 can bind to the dye and alter its fluorescence intensity. This increase in fluorescence signal, and thus the flux in intracellular [Ca^+2], is detected and quantitated by fluorescence imaging using a FLIPR reader. The effect of the agonist is measured as a function of concentration and used to calculate an EC50 based upon a response curve.
In this procedure 2500 cells/well were employed.
A Human GPR120 clone (Genbank accession number NM_001195755.1) was placed into the pcDNA3.1 mammalian expression vector carrying the neomycin resistance gene. A stable mammalian cell was generated by placing the above clone into a HEK293 background. Clonal cells responding to long chain fatty acids had expression levels of GPR120 confirmed by RT-qPCR. Human HEK-GPR120 cells were cultured in Dulbecco's Modified Eagle's Medium (DMEM)/F12 medium supplemented with 10% fetal bovine serum (FBS), 1% L-Glutamine and 1% penicillin/streptomycin and 0.5 mg/ml G-418. Cells were split 2 times a week to keep the cells in the log-phase growth.
In preparation for the assay, HEK cells stably transfected with Human GPR120 (2.5K cells per well in 25 uL growth medium) were seeded into 384-well plates and then incubated overnight (37° C., 5% CO2). The next day, the media was changed to 20 μl assay buffer and the cell starved for 1 h at 37° C. The dye loading solution (2× dye) was prepared using 10 ml assay buffer, 100 μl of 250 mM probenecid, 1 bottle of Component A, and 20 μl of dye in DMSO. Twenty μl of the 2× dye loading buffer was then added to each well. The plates were incubated at 37° C. for 30 min, then at room temperature for an additional 15 minutes, before performing the assay on FLIPR.
Test compounds were prepared in assay buffer (2 μl of test compound+198 μl assay buffer, final DMSO in assay plate is 0.2%) at the desired concentration, more particularly at 100 μM, 50 μM, 25 μM, 12.5 μM, 6.25 μM, 3.125 μM, 1.562 μM, 0.781 μM, 0.391 μM, 0.195 μM, 0.098 μM, 0.049 μM, 0.024 μM and 0.012 μM.
The assay was performed on a FLIPR plate reader using the following parameters. Baseline was read for 10 seconds at 1 sec intervals. The program was set to transfer 10 μL of ligand from compound plate to cell plate after baseline reading. Aspiration was executed at: 10 μl/sec speed, 4.6 μl height; Dispensing was executed at: 30 μl/sec speed, 45 μl height. After compound addition, each well was read for 300 sec, with measurements collected at 1 sec intervals.
The kinetic data from the FLIPR was based upon a 5 minute window for data collection. The fluorescence of each sample well was used for individual calculations of a normalized RFU value, which was defined as maximum response minus the minimum response. The normalized fluorescence reading (RFU) was calculated as follows: RFU=Fmax−Fmin
The data were fitted to a sigmoidal dose-response curve with a variable Hill slope (<2) using nonlinear regression with GraphPad Prism 5.0 to calculate the EC50 values. The Fitting Equation was: Y=Bottom+(Top−Bottom)/(1+10^((LogEC50−X)*HillSlope)), where X is the log of the concentration and Y is the response.

Some results are limits rather than exact numbers.

Consider `Cc1c(CCC(=O)O)ccc(OCc2cc(F)cc3cc(CC4CCCC4)oc23)c1C` [Compound 19, 3-(4-{[2-(Cyclopentylmethyl)-5-fluoro-1-benzofuran-7-yl]methoxy}-2,3-dimethylphenyl)propanoic acid], for which the EC50 amounted to 1680 nM.
With `Cc1cc2cc(CCCS(C)(=O)=O)cc(COc3ccc(CCC(=O)O)c(C)c3C)c2o1` [Compound 100, 3-[2,3-Dimethyl-4-({2-methyl-5-[3-(methylsulfonyl)propyl]-1-benzofuran-7-yl}methoxy)phenyl]propanoic acid], the EC50 is above 5000 nM.
To `CCc1cc2cc(OC(F)(F)F)cc(COc3cc(CCC(C)C)c(CCC(=O)O)cc3F)c2o1` [Compound 51, 3-[4-{[2-Ethyl-5-(trifluoromethoxy)-1-benzofuran-7-yl]methoxy}-5-fluoro-2-(3-methylbutyl)phenyl]propanoic acid] belongs 392 nM.
Consider `CCc1cc2cc(F)cc(COc3cc(C)c(CCC(=O)O)cn3)c2o1` [Compound 33, 3-{6-[(2-Ethyl-5-fluoro-1-benzofuran-7-yl)methoxy]-4-methylpyridin-3-yl}propanoic acid], for which the EC50 was determined as 1110 nM.
Under `CCCc1cc2cc(Cl)cc(COc3cc(C)c(CCC(=O)O)cn3)c2o1` [Compound 34, 3-{6-[(5-Chloro-2-propyl-1-benzofuran-7-yl)methoxy]-4-methylpyridin-3-yl}propanoic acid] stands 1020 nM; under `Cc1cc2c(COc3c(F)cc(CCC(=O)O)cc3F)cc(Cl)cc2s1` [Compound 102, 3-{4-[(6-Chloro-2-methyl-1-benzothiophen-4-yl)methoxy]-3,5-difluorophenyl}propanoic acid], above 5000 nM; under `Cc1c(CCC(=O)O)ccc(OCc2cc(F)cc3cc(CCO)oc23)c1C` [Compound 15, 3-(4-{[5-Fluoro-2-(2-hydroxyethyl)-1-benzofuran-7-yl]methoxy}-2,3-dimethylphenyl)propanoic acid], 4750 nM.
To `Cc1c(CCC(=O)O)ccc(OCc2cc(F)cc3cc(Cc4ccccc4)oc23)c1C` [Compound 20, 3-{4-[(2-Benzyl-5-fluoro-1-benzofuran-7-yl)methoxy]-2,3-dimethylphenyl}propanoic acid] belongs 5290 nM; to `Cc1cc2cc(C#CCS(C)(=O)=O)cc(COc3ccc(CCC(=O)O)c(C)c3C)c2o1` [Compound 99, 3-[2,3-Dimethyl-4-({2-methyl-5-[3-(methylsulfonyl)prop-1-yn-1-yl]-1-benzofuran-7-yl}methoxy)phenyl]propanoic acid], above 5000 nM; to `Cc1cc2c(COc3ccc(CCC(=O)O)c(C)c3C)cc(Cl)cc2s1` [Compound 101, 3-{4-[(6-Chloro-2-methyl-1-benzothiophen-4-yl)methoxy]-2,3-dimethylphenyl}propanoic acid], 3200 nM.
As to `COCCc1cc2cc(F)cc(COc3ccc(CCC(=O)O)c(C)c3C)c2o1` [Compound 10, 3-(4-{[5-Fluoro-2-(2-methoxyethyl)-1-benzofuran-7-yl]methoxy}-2,3-dimethylphenyl)propanoic acid], the EC50 was 424 nM.
Under `Cc1nc2c(COc3ccc(CCC(=O)O)c(C)c3C)cc(Cl)cc2o1` [Compound 95, 3-{4-[(6-Chloro-2-methyl-1,3-benzoxazol-4-yl)methoxy]-2,3-dimethylphenyl}propanoic acid] stands 134 nM; under `CCc1cc2cc3c(c(COc4ccc(CCC(=O)O)c(C)c4C)c2o1)CC(C)(C)O3` [Compound 30, 3-{4-[(6-Ethyl-2,2-dimethyl-2,3-dihydrobenzo[1,2-b:4,5-b′]difuran-4-yl)methoxy]-2,3-dimethylphenyl}propanoic acid], 759 nM; under `Cc1oc2c(COc3c(Br)cc(CCC(=O)O)c(C)c3C)cc(OC(F)(F)F)cc2c1Br` [Compound 120, 3-(5-Bromo-4-{[3-bromo-2-methyl-5-(trifluoromethoxy)-1-benzofuran-7-yl]methoxy}-2,3-dimethylphenyl)propanoic acid], 1540 nM.
As to `Cc1c(CCC(=O)O)ccc(OCc2cc(F)cc3cc(CCC(C)C)oc23)c1C` [Compound 9, 3-(4-{[5-Fluoro-2-(3-methylbutyl)-1-benzofuran-7-yl]methoxy}-2,3-dimethylphenyl)propanoic acid], the concentration for a half-maximal effect (EC50) was 2750 nM.
Consider `Cc1cc2c(COc3c(F)cc(CCCO)cc3F)cc(Cl)cc2s1` [Compound 103, 3-{4-[(6-Chloro-2-methyl-1-benzothiophen-4-yl)methoxy]-3,5-difluorophenyl}propan-1-ol], for which the EC50 was determined as 3000 nM.
For the molecule `Cc1c(CCC(=O)O)ccc(OCc2cc(OC(F)(F)F)cc3cc(CCO)oc23)c1C` [Compound 94, 3-(4-{[2-(2-Hydroxyethyl)-5-(trifluoromethoxy)-1-benzofuran-7-yl]methoxy}-2,3-dimethylphenyl)propanoic acid], the EC50 is 274 nM.
Regarding `Cc1cc2cc(Cl)cc(COc3c(F)cc(CCC(=O)O)cc3F)c2s1` [Compound 92, 3-{4-[(5-Chloro-2-methyl-1-benzothiophen-7-yl)methoxy]-3,5-difluorophenyl}propanoic acid], the EC50 was determined as 417 nM.
Regarding `C#Cc1cc(COc2ccc(CCC(=O)O)c(C)c2C)c2oc(CCC)cc2c1` [Compound 38, 3-{4-[(5-Ethynyl-2-propyl-1-benzofuran-7-yl)methoxy]-2,3-dimethylphenyl}propanoic acid], the EC50 stood at 28 nM.
Turning to `CCc1cc2cc(C#N)cc(COc3ccc(CCC(=O)O)c(C)c3C)c2o1` [Compound 123, 3-(4-((5-cyano-2-ethylbenzofuran-7-yl)methoxy)-2,3-dimethylphenyl)propanoic acid], the EC50 came out at 1410 nM.
Turning to `Cc1c(CCC(=O)O)ccc(OCc2cc(F)cc3cc(CO)oc23)c1C` [Compound 14, 3-(4-{[5-Fluoro-2-(hydroxymethyl)-1-benzofuran-7-yl]methoxy}-2,3-dimethylphenyl)propanoic acid], the EC50 worked out at 1320 nM.
For `CCc1cc2cc(OC(F)(F)F)cc(COc3cc(CC(C)C)c(CCC(=O)O)cc3F)c2o1` [Compound 53, 3-[4-{[2-Ethyl-5-(trifluoromethoxy)-1-benzofuran-7-yl]methoxy}-5-fluoro-2-(2-methylpropyl)phenyl]propanoic acid], the EC50 is 673 nM.
